Reference: ChEMBL document CHEMBL1201862, “PubChem BioAssay data set” (2004)
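48-hour exposure; five concentrations; linearly interpolated endpoints. GI50: concentration for 50% inhibition of growth.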 Activity calls are given as the source filed them. Rule as the data show it: active = GI50 up to about 1.1 µM and inactive = higher.

What was measured:
Test in all cases: NCI tumour cell line growth inhibition, 48 h
SNB-78 = system: SNB-78
SR = system: SR
UACC-62 = system: UACC-62
SW-620 = system: SW-620
ACHN = system: ACHN
OVCAR-3 = system: OVCAR-3
HT-29 = system: HT-29
U-251 = system: U-251
HCT-15 = system: HCT-15
DMS-114 = system: DMS-114
DMS-273 = system: DMS-273
M19-MEL = system: M19-MEL
OVCAR-5 = system: OVCAR-5
OVCAR-4 = system: OVCAR-4
K562 = system: K562
KM12 = system: KM12
HCT-116 = system: HCT-116
SN12C = system: SN12C
UO-31 = system: UO-31
HOP-62 = system: HOP-62

Q: What does the source list for `Cc1cc(O)nc(NN2C(Cl)C(=O)C2c2ccc([N+](=O)[O-])cc2)n1` (stereo not given)?
A: GI50 (SNB-78): 7.36 µM (inactive); GI50 (SR): 6.15 µM (inactive); GI50 (UACC-62): 3.31 µM (inactive); GI50 (SW-620): 20.5 µM (inactive); GI50 (ACHN): 7.4 µM (inactive); GI50 (OVCAR-3): 6.53 µM (inactive); GI50 (HT-29): 15.6 µM (inactive); GI50 (U-251): 13.8 µM (inactive); GI50 (HCT-15): 7.52 µM; GI50 (DMS-114): 8.07 µM (inactive); GI50 (DMS-273): 8.34 µM (inactive); GI50 (M19-MEL): 4.26 µM (inactive); GI50 (OVCAR-5): 25.1 µM (inactive); GI50 (OVCAR-4): 13.7 µM (inactive); GI50 (K562): 3.1 µM (inactive); GI50 (KM12): > 10 µM (inactive); GI50 (HCT-116): 9.38 µM (inactive); GI50 (SN12C): 11.1 µM (inactive); GI50 (UO-31): 13.9 µM (inactive); GI50 (HOP-62): 7.76 µM (inactive)
